In patent US9439426B2, “Active compound combinations comprising carboxamide derivatives and a biological control agent” (BAYER CROPSCIENCE AG, priority 2012, dated 2016):

Key:
Puccinia triticina = test: Puccinia triticina-test (wheat)/preventive; assay type: in vivo; settings: preventive, 30 ppm a.i., evaluated 8 days after inoculation
Procedure: (§1) The commercially available compounds SERENADE-MAX®, SONATA®, active compounds (1 part by weight) solved in N,N-dimethylacetamide (49 parts by weight) and alkylaryl polyglycol ether (1 part by weight), or combinations thereof were diluted with water to the desired concentration.
(§2) To test for preventive activity, young plants are sprayed with the preparation of active compound or active compound combination at the stated rate of application.
After the spray coating has been dried, the plants are sprayed with a spore suspension of Puccinia triticina. The plants remain for 48 hours in an incubation cabinet at approximately 20° C. and a relative atmospheric humidity of approximately 100%.
(§3) The plants are placed in the greenhouse at a temperature of approximately 20° C. and a relative atmospheric humidity of approximately 80%.
(§4) The test is evaluated 8 days after the inoculation. 0% means an efficacy which corresponds to that of the untreated control, while an efficacy of 100% means that no disease is observed.

Pyrenophora teres = test: Pyrenophora teres-test (barley)/preventive; assay type: in vivo; settings: preventive, 30 ppm a.i., evaluated 8 days after inoculation
Procedure: as §1, §2
After the spray coating has been dried, the plants are sprayed with a spore suspension of Pyrenophora teres. The plants remain for 48 hours in an incubation cabinet at approximately 20° C. and a relative atmospheric humidity of approximately 100%.
as §3, §4

Septoria tritici = test: Septoria tritici-test (wheat)/preventive; assay type: in vivo; settings: preventive, 30 ppm a.i., evaluated 21 days after inoculation
Procedure: as §1, §2
After the spray coating has been dried, the plants are sprayed with a spore suspension of Septoria tritici. The plants remain for 48 hours in an incubation cabinet at approximately 20° C. and a relative atmospheric humidity of approximately 100% and afterwards for 60 hours at approximately 15° C. in a translucent incubation cabinet at a relative atmospheric humidity of approximately 100%.
The plants are placed in the greenhouse at a temperature of approximately 15° C. and a relative atmospheric humidity of approximately 80%.
The test is evaluated 21 days after the inoculation. 0% means an efficacy which corresponds to that of the untreated control, while an efficacy of 100% means that no disease is observed.

[1] = log P by HPLC on reversed-phase column (C 18), EEC Directive 79/831 Annex V.A8; assay type: physicochemical; settings: reversed-phase HPLC column (C 18), 40° C., 0.1% aqueous formic acid and acetonitrile
Procedure: In table 1, the log P values were determined in accordance with EEC Directive 79/831 Annex V.A8 by HPLC (High Performance Liquid Chromatography) on a reversed-phase column (C 18), using the method described below:
Temperature: 40° C.; Mobile phases: 0.1% aqueous formic acid and acetonitrile; linear gradient from 10% acetonitrile to 90% acetonitrile.
Calibration was carried out using unbranched alkan-2-ones (comprising 3 to 16 carbon atoms) with known log P values (determination of the log P values by the retention times using linear interpolation between two successive alkanones). lambda-max-values were determined using UV-spectra from 200 nm to 400 nm and the peak values of the chromatographic signals.

Structure (SMILES) | Efficacy in % found (Puccinia triticina) | Efficacy in % found (Pyrenophora teres) | Efficacy in % found (Septoria tritici) | chromatographic logP [1]
CC(C)c1ccc(Cl)cc1CN(C(=O)c1c(C(F)F)nn(C)c1F)C1CC1 [A5, N-(5-chloro-2-isopropylbenzyl)-N-cyclopropyl-3-(difluoromethyl)-5-fluoro-1-methyl-1H-pyrazole-4-carboxamide] | 67% | 78% | 60% | 
CC(C)c1ccccc1CN(C(=S)c1c(C(F)F)nn(C)c1F)C1CC1 [A20, N-cyclopropyl-3-(difluoromethyl)-5-fluoro-N-(2-isopropylbenzyl)-1-methyl-1H-pyrazole-4-carbothioamide] |  |  |  | 4.36
